Reference: patent publication US20040038933A1, “Pharmaceutical compositions, dose and method for treating malaria” (priority 2000, published 2004)

Key:
[1] = test system: asexual malarial parasites; assay: Recovery from coma in patients with severe/cerebral malaria, combined administration of CRDS and artesunate; format: in vivo; details: male patients in a coma, Glasgow Coma Score, CRDS 4 mg/kg i.v. infusion every 8 hours for 4 days, artesunate i.v. up to 600 mg, 13 patients per group, FIG. 2
Experimental: CRDS (molecular weight 80,000; sulfur content 14.5%) was used as a sulfated polysaccharide and artesunate was used as an artemisinin compound.
(§1) CRDS was used as a solution containing 100 mg of CRDS, 50 mg of mannitol, 18 mg of dibasic sodium phosphate and phosphate buffer (pH 6.5) per vial.
(§2) CRDS was intravenously administered (infusion) at 4 mg/kg every 8 hours in a total daily dose of 12 mg/kg for 4 days.
(§3) Physiological saline was used as a placebo and administered according to the same schedule as for CRDS.
(§4) Artesunate (60 mg/vial) was intravenously administered to both CRDS and placebo groups at a dose of initially 120 mg, and then 60 mg every 12 hours up to a total dose of 600 mg. If possible, tablets containing 50 mg of artesunate were orally administered.
Coma was determined by Glasgow Coma Score.
For each of the CRDS group and the placebo group, 13 patients completed this protocol. The time required for each patient to recover from coma was recorded. Fisher's exact test was used to compare the number of patients who recovered from coma within 120 hours between both groups (CRDS group and placebo group).

P. falcipanini = assay: Recovery from fever in patients with severe malaria, combined administration of CRDS and artesunate; format: in vivo; details: CRDS 4 mg/kg i.v. infusion every 8 hours for 4 days, artesunate i.v. 120 mg then 60 mg every 12 hours up to 600 mg, 22 patients per group, FIG. 1
Experimental: Sodium curdlan sulfate (hereinafter referred to as “CRDS”; molecular weight 80,000; sulfur content 14.5%) was used as a sulfated polysaccharide and artesunate (dihydroartemisinin hemisuccinate, see formula I, J. Med. Chem., 30, 2147 (1987)) was used as an artemisinin compound.
as §1, §2, §3
as §4, with “mg (according to the current standard therapy in the Bangkok Hospital for Tropical Diseases).” for “mg.”
Fifty patients were randomly divided into a CRDS group and a placebo group. The patients were males and females at the ages of 12-65 in whom P. falcipanini was found. The patients had symptoms of severe malaria (with hypoglycemia corrected) and excluded those having symptoms of cerebral malaria. […]
The time required for each patient to recover from fever after starting the treatment was recorded. […]

## C[C@H]1[C@H](OC(=O)CCC(=O)O)O[C@@H]2O[C@@]3(C)CC[C@H]4[C@H](C)CC[C@@H]1[C@@]24OO3 [artesunate, dihydroartemisinin hemisuccinate]
[1]
  time required for all the patients to recover from coma: 9 days
P. falcipanini
  time required for all the patients to recover from fever: 9 days
